We go through ten compounds from patent US7153853B2, “Heterocyclic compounds and antitumor drugs containing the same as the active ingredient” (Zenyaku Kogyo Kabushiki Kaisha, priority 2002, dated 2006).

One series deals with MCF-7 cells. The experiment in a line: Test 1: growth inhibition of MCF-7 human breast cancer cells. The note with it: read-out: GI50 (50% growth inhibition concentration). Type of series: cell-based. The method, then: Used in the test were MCF-7 cells which were established from human breast cancer and were cultured routinely under the conditions of 37° C. and 5% CO2, in MEM medium supplemented with 10% fetal calf serum, 25 mM of HEPES and 0.1 mg/ml of kanamycin. The MCF-7 cells in a logarithmic growth phase were treated with trypsin/EDTA to prepare single cell suspension adjusted to 4.0×10^4 cells/ml in MEM medium (supplemented with 10% fetal calf serum, 25 mM of HEPES and 0.1 mg/ml of kanamycin). Test compounds were dissolved in DMSO and diluted with RPMI 1640 medium (supplemented with 10% fetal calf serum, 25 mM of HEPES and 0.1 mg/ml of kanamycin) to a concentration of 2.0×10^−9−2.0×10^−4 M.
The cell suspension was filled in a 96-wells microplate at a rate of 0.1 ml per well and was cultured for 24 hours so as to make the cells adhered to the microplate. Then, it was added with 0.1 ml of the sample solution and cultured at 37° C. for 72 hours in 5% CO2.
50% Growth inhibition concentrations (GI50 μM) were calculated from growth inhibitions at various sample concentrations.

In series [1] the test system is human colonic cancer WiDr. Kind of series: Test 2: human colonic cancer WiDr transplanted subcutaneously in nude mice, relative tumor growth T/C. Type of series: in vivo, BALB/c nude mice. The note with it: 200 mg/kg intraperitoneally, once a day, six times a week, two weeks; effective (+) = T/C less than 50% and Mann-Whitney significant at one-sided 1%. From the text: Mutant BALB/c nude mice were used for routine culture of 2-mm-square piece of human colonic cancer WiDr which was transplanted subcutaneously into left breast of each of the mice. The mice were separated for testing into groups each of five mice at the time of the tumor in its logarithmic growth phase. The samples prepared by dissolving test compounds in physiological saline solution or suspending them in 1% hydroxypropyl cellulose (HPC), using an agate mortar, were intraperitoneally administered at a rate of 200 mg/kg, once a day and six times a week in total, for two weeks. Major and minor axes of the tumor mass were measured on a daily basis to calculate tumor volume. […] As a result, the compound according to the present invention was effective whereas the comparative compound A was ineffective.

[2] abbreviates: Homo sapiens, MCF7, cultured 72 hours with sample.

Read-outs that look alike come from different tables or passages of the source. Where only a bound is given, the exact number is not on record here.

Consider `c1cn(-c2nc(N3CCOCC3)nc(N3CCOCC3)n2)cn1` [compound C, 2-(imidazol-1-yl)-4,6-dimorpholino-1,3,5-triazine, reference compound], for which, in the series with MCF-7 cells (setting [2]), the GI50 worked out at 20000 nM.
For the compound `Nc1cc(Cl)c2nc(C(F)F)n(-c3nc(N4CCOCC4)nc(N4CCCC4CO)n3)c2c1` (stereo not drawn) [compound 3, 2-(6-amino-4-chloro-2-difluoromethylbenzimidazol-1-yl)-4-(2-hydroxymethylpyrrolidin-1-yl)-6-morpholino-1,3,5-triazine], the melting point (in general, the temperature of the solid-liquid transition) was 256 °C (dec.). Moreover, the GI50 in the series with MCF-7 cells (setting [2]) was 270 nM.
Regarding `Cc1nc2ccccc2n1-c1nc(N2CCOCC2)nc(N2CCOCC2)n1` [compound B, 2-(2-methylbenzimidazol-1-yl)-4,6-dimorpholino-1,3,5-triazine, reference compound], in the series with MCF-7 cells (setting [2]), the GI50 worked out at 3700 nM.
As to `CN(C)c1nc(N(C)C)nc(N(C)C)n1` [compound D, hexamethylmelamine, reference compound], the GI50 with MCF-7 cells (setting [2]) was more than 100000 nM.
`Oc1ccc2c(nc(C(F)F)n2-c2nc(N3CCOCC3)nc(N3CCOCC3)n2)c1Cl` [compound 6, 2-(4-chloro-2-difluoromethyl-5-hydroxybenzimidazol-1-yl)-4,6-dimorpholino-1,3,5-triazine] yielded a melting point of more than 250 °C. In the series on MCF-7 cells (setting [2]), the GI50 worked out at 80 nM.
Regarding `OCC1CCCN1c1nc(N2CCOCC2)nc(-n2c(C(F)F)nc3c(O)cccc32)n1` (stereo not drawn) [compound 5, 2-(2-difluoromethyl-4-hydroxybenzimidazol-1-yl)-4-(2-hydroxymetylpyrrolidin-1-yl)-6-morpholino-1,3,5-triazine], the GI50 in the series with MCF-7 cells (cultured 72 hours with sample) came to 60 nM.
Compound `OCC1CCCN1c1cc(N2CCOCC2)nc(-n2c(C(F)F)nc3c(O)cccc32)n1` (stereo not drawn) [compound 1, 2-(2-difluoromethyl-4-hydroxybenzimidazol-1-yl)-4-(2-hydroxymethylpyrrolidin-1-yl)-6-morpholinopyrimidine] returned a melting point of 195 to 198 °C. Besides, the GI50 in the series with MCF-7 cells (setting [2]) was determined as 70 nM.
Take `CN1CCC(N(C)c2nc(N3CCOCC3)nc(-n3c(C(F)F)nc4c(Cl)cc(N)cc43)n2)CC1`: the melting point is 194 °C (dec.).
For the compound `CC1(C)CN(c2nc(N3CCOCC3)nc(-n3c(C(F)F)nc4c(Cl)cc(N)cc43)n2)CCO1` [compound 2, 2-(6-amino-4-chloro-2-difluoromethylbenzimidazol-1-yl)-4-(2,2-dimethylmorpholino)-6-morpholino-1,3,5-triazine], the melting point was 238 °C (dec.). In the series with MCF-7 cells (setting [2]), the GI50 was 80 nM.
As for `C[C@@H]1OCCN(c2cc(N3CCOCC3)nc(-n3cnc4ccccc43)n2)[C@H]1C` (relative stereo) [compound A, 2-(benzimidazol-1-yl)-4-(trans-2,3-dimethylmorpholino)-6-morpholinopyrimidine, reference compound], in series [1], the “antitumor effect judged from T/C (%) of the last day” value is “ineffective”. In the series on MCF-7 cells (setting [2]), the GI50 amounted to 2200 nM.
